Test system: 616215-338-R-J1-PDC complex spheroids, viability % test/control
Test: Anticancer human tumor 616215-338-R-J1-PDC patient-derived colon adenocarcinoma cell line growth inhibition [CLK]
Details: for IC50: curve of first compound; for viability, T/C: stronger effect = lower value; active means viability on the fitted dose curve at most 10% of control; inactive means the rest
In short: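 Patient-derived tumor cells grown as complex spheroids with HUVEC endothelial cells and mesenchymal stem cells, treated with drug combinations. Concentrations descend in half-log steps from near clinical Cmax, or from 10 microM if Cmax unknown.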

[1] = second compound 0.0316 µM, first compound 0.0316 µM
[2] = second compound 0.0316 µM, first compound 0.1 µM
[3] = second compound 0.0316 µM, first compound 0.316 µM
[4] = second compound 0.0316 µM, first compound 1 µM
[5] = second compound 0.0316 µM, first compound 3.16 µM
[6] = second compound 0.0316 µM, first compound 10 µM
[7] = second compound 0.1 µM, first compound 0.0316 µM
[8] = second compound 0.1 µM, first compound 0.1 µM
[9] = second compound 0.1 µM, first compound 0.316 µM
[10] = second compound 0.1 µM, first compound 1 µM
[11] = second compound 0.1 µM, first compound 3.16 µM
[12] = second compound 0.1 µM, first compound 10 µM
[13] = second compound 0.316 µM, first compound 0.0316 µM
[14] = second compound 0.316 µM, first compound 0.1 µM
[15] = second compound 0.316 µM, first compound 0.316 µM
[16] = second compound 0.316 µM, first compound 1 µM
[17] = second compound 0.316 µM, first compound 3.16 µM
[18] = second compound 0.316 µM, first compound 10 µM
[19] = second compound 1 µM, first compound 0.0316 µM
[20] = second compound 1 µM, first compound 0.1 µM
[21] = second compound 1 µM, first compound 0.316 µM
[22] = second compound 1 µM, first compound 1 µM
[23] = second compound 1 µM, first compound 3.16 µM
[24] = second compound 1 µM, first compound 10 µM
[25] = second compound 3.16 µM, first compound 0.0316 µM
[26] = second compound 3.16 µM, first compound 0.1 µM
[27] = second compound 3.16 µM, first compound 0.316 µM
[28] = second compound 3.16 µM, first compound 1 µM
[29] = second compound 3.16 µM, first compound 3.16 µM
[30] = second compound 3.16 µM, first compound 10 µM
[31] = second compound 10 µM, first compound 0.0316 µM
[32] = second compound 10 µM, first compound 0.1 µM
[33] = second compound 10 µM, first compound 0.316 µM
[34] = second compound 10 µM, first compound 1 µM
[35] = second compound 10 µM, first compound 3.16 µM
[36] = second compound 10 µM, first compound 10 µM
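Further: spheroids exposed to agents for 7 days.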
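Wherever viability, T/C is given: 100% = DMSO vehicle wells.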

O=c1[nH]cc(F)c(=O)[nH]1 + CN1CCN(c2cc(C(=O)Nc3cc4cc(-c5cnn(C)c5)ccc4cn3)ccn2)CC1
< 31.6 nM: IC50 (second compound 0.316 µM) | IC50 (second compound 1 µM) | IC50 (second compound 3.16 µM) | IC50 (second compound 10 µM)
active: viability, T/C [19] 0.14% | viability, T/C [20] 1.14% | viability, T/C [21] 2.43% | viability, T/C [22] 0.08% | viability, T/C [23] 2.58% | viability, T/C [24] 2.28% | viability, T/C [25] 0.08% | viability, T/C [26] 0.42% | viability, T/C [27] 1.29% | viability, T/C [28] 0.07% | viability, T/C [29] 0.09% | viability, T/C [30] 0.13% | viability, T/C [31] 0.07% | viability, T/C [32] 1.38% | viability, T/C [33] 4.56% | viability, T/C [34] 0.1% | viability, T/C [35] 2.34% | viability, T/C [36] 0.19%
inactive: viability, T/C [1] 98.6% | viability, T/C [2] 119% | viability, T/C [3] 64.4% | viability, T/C [4] 46.2% | viability, T/C [5] 42.4% | viability, T/C [6] 50.6% | viability, T/C [7] 121% | viability, T/C [8] 109% | viability, T/C [9] 61.2% | viability, T/C [10] 49.6% | viability, T/C [11] 38.7% | viability, T/C [12] 41.1% | viability, T/C [13] 31.9% | viability, T/C [14] 34.7% | viability, T/C [15] 41.8% | viability, T/C [16] 33.3% | viability, T/C [17] 29.6% | viability, T/C [18] 26.6%
692 nM: IC50 (second compound 0.1 µM)
796 nM: IC50 (second compound 0.0316 µM)

COc1cccc2c1C(=O)c1c(O)c3c(c(O)c1C2=O)CC(O)(C(=O)CO)CC3OC1CC(N)C(O)C(C)O1 (centres undefined) + CN1CCN(c2cc(C(=O)Nc3cc4cc(-c5cnn(C)c5)ccc4cn3)ccn2)CC1
211 nM: IC50 (second compound 0.0316 µM)
active: viability, T/C [6] 0.14% | viability, T/C [12] 0.13% | viability, T/C [16] 2.19% | viability, T/C [17] 0.13% | viability, T/C [18] 0.13% | viability, T/C [19] 0.14% | viability, T/C [20] 0.17% | viability, T/C [21] 0.16% | viability, T/C [22] 0.1% | viability, T/C [23] 0.09% | viability, T/C [24] 0.11% | viability, T/C [25] 0.09% | viability, T/C [26] 0.12% | viability, T/C [27] 0.11% | viability, T/C [28] 0.09% | viability, T/C [29] 0.12% | viability, T/C [30] 0.71% | viability, T/C [31] 0.1% | viability, T/C [32] 0.12% | viability, T/C [33] 0.46% | viability, T/C [34] 0.13% | viability, T/C [35] 0.16% | viability, T/C [36] 0.17%
142 nM: IC50 (second compound 0.1 µM)
inactive: viability, T/C [1] 82.5% | viability, T/C [2] 42.5% | viability, T/C [3] 51.5% | viability, T/C [4] 41.8% | viability, T/C [5] 0.43% | viability, T/C [7] 71% | viability, T/C [8] 44.8% | viability, T/C [9] 42.5% | viability, T/C [10] 37.9% | viability, T/C [11] 0.52% | viability, T/C [13] 27.6% | viability, T/C [14] 32.9% | viability, T/C [15] 21.8%
< 31.6 nM: IC50 (second compound 0.316 µM) | IC50 (second compound 1 µM) | IC50 (second compound 3.16 µM) | IC50 (second compound 10 µM)

— PubChem BioAssay AID2060610 (Molecular Pharmacology Branch, DTP, NCI, 2025)
